# Assay results taken from patent publication US20240238217A1, “USE OF CLOFOCTOL FOR THE TREATMENT OF INFLAMMATION” (INSTITUT NATIONAL DE LA SANTÉ ET DE LA RECHERCHE MÉDICALE, priority 2021, published 2024).
# Like-named read-outs stand apart in the source and are kept apart here.
# Columns and labels:
# [1] = test system: IAV H1N1 A/California/04/2009 (pdm09); experiment: IAV infection in mice: viral load, lung inflammation, pathology; assay type: in vivo, C57BL/6J mice; details: 50 mg/kg i.p.
# [2] = test system: SARS-CoV-2; experiment: In vitro antiviral activity (IC95) of clofoctol; assay type: cell-based
# [3] = test system: LPS-induced lung inflammation; experiment: LPS-induced lung inflammation in mice (RT-qPCR of lung transcripts); assay type: in vivo, C57BL/6J mice; details: male mice, 50 mg/kg i.p. 1 h before and 8 h after i.n. LPS 10 μg/mouse, 24 h
# Description: FIG. 5: Effects of clofoctol treatment on LPS-induced lung inflammation. Male C57BL/6J mice were treated i.p. with clofoctol (50 mg/kg) or vehicle 1 h before and 8 h after i.n. inoculation of LPS (10 μg/mouse) or PBS. Animals were sacrificed 24 h after LPS inoculation. mRNA copy numbers of genes were quantified by RT-qPCR. Data are expressed as fold change over average gene expression in PBS-treated animals. Results are expressed as the mean±SD (n=6). Significant differences were determined using the Mann-Whitney U test (**p<0.01).
# C57BL/6 mice were inoculated by the intra-nasal route with LPS (Escherichia coli 0111:B4) at 10 μg/mouse. Clofoctol was injected i.p. 1 h before and 8 h after LPS administration. Mice were sacrificed 24 hrs after LPS inoculation.
# [4] = test system: IAV H1N1 A/California/04/2009 (pdm09); experiment: Long-term sequela (fibrosis) imposed by IAV infection in mice; details: 50 mg/kg i.p. once a day for 4 days
# [5] = test system: SARS-COV-2; assay type: in vivo, K18-hACE2 transgenic C57BL/6J mice
# [6] = test system: MPI cells; experiment: LPS-induced cytokine production by alveolar macrophage MPI cells (ELISA); assay type: cell-based, C57BL/6J mouse; details: clofoctol added 30 minutes prior to LPS 10 ng/ml, 24 h, supernatant ELISA
# Description: FIG. 3: Effects of clofoctol treatment on LPS-induced cytokine production by alveolar macrophages. ELISA of IL-1β, IL-12p40, TNFα, and MCP-1 from supernatant of MPI cells pre-treated or not with clofoctol and stimulated or not with LPS during 24 h. The percentage cell viability post treatment is indicated. Significant differences were determined using the two-way ANOVA corrected for Dunnett's multiple comparisons test (viability test) or one-way ANOVA corrected for Dunnett's multiple comparisons test (n=7-11) (**p<0.01; ***p<0.001, ****p<0.0001).
# Max Plank Institute (MPI) cells are self-renewing and non-transformed cells originated from fetal liver of C57BL/6J mouse. MPI cells were used as a model of alveolar macrophages, due to their closer profile (Fejer et al., 2013). Cells were cultivated in RPMI Glutamax with 10% FBS, 1% Penicillin/streptomycin, and 30 ng/mL GM-CSF and incubated on 37° ° C.5% CO2. MPI cells were used from passage 6 until passage 30 and they were negative for mycoplasma contamination, which was assessed with MycoAlert™ Mycoplasma Detection Kit (Lonza-Basel, Switzerland). […] Cytokine production was measured from the supernatant of cells after 24 h of stimulation, accordingly to protocol's manufactures for IL-1β, IL-12p40, TNF-α, and MCP-1 (R&D Systems—Minneapolis, MN). […]
# [7] = test system: PMA-differentiated THP-1 macrophages; experiment: LPS-induced cytokine expression in PMA-differentiated THP-1 macrophages (RT-qPCR and ELISA); assay type: cell-based, human; details: clofoctol 1 hour prior to LPS 100 ng/mL
# Description: FIG. 4: Effects of clofoctol treatment on LPS-induced cytokine mRNA expression by PMA-differentiated THP-1 macrophages. a, b, c and d) mRNA expression of MCP1, TNFα, IL-6 and IL-1β were quantified by RT-qPCR. Data are expressed as a fold-increase over the mean gene expression level in solvent control wells. (mean+/−SD from 3 experiments in duplicate). Significant differences were determined using the one-way ANOVA corrected for Dunnett's multiple comparisons test (**p<0.01; ***p<0.001, ****p<0.0001). ELISA of MCP1, TNFα and IL-6 (e, f and g) from supernatant of THP-1 cells pre-treated or not with Clofoctol or Dexamethasone and stimulated with LPS during 24 h. Results are expressed as the concentration of cytokine in pg/mL. (mean from one experiment in duplicate).
# THP-1 designates a spontaneously immortalized monocyte-like cell line, derived from the peripheral blood of a childhood case of acute monocytic leukemia. Cells were cultivated in RPMI with HEPES without Glutamine complemented with 2 mM Glutamine, 10% FBS and 1% Penicillin/streptomycin and incubated at 37° C.-5% CO2. THP1 cells were used from passage 7 until passage 14 and they were negative for mycoplasma contamination, which was assessed with MycoAlert™ Mycoplasma Detection Kit (Lonza-Basel, Switzerland). […] In THP1, The levels of human cytokines were measured after 24 h of stimulation in the collected supernatants with human CCL2/MCP-1, IL-6 and TNF-α Duoset ELISA (R&D systems, Minneapolis, MN) according to the manufacturer's protocols.
# Total RNA was extracted with NucleoSpin® RNA kit (Macherey-Nagel, Hoerdt, Germany). […] Relative quantification of MCP1, TNF-α, IL-6 and IL-1β was performed using the gene coding glyceraldehyde 3-phosphate dehydrogenase (GAPDH). Relative mRNA levels (2-ΔΔCt) were determined by comparing (a) the PCR cycle thresholds (Ct) for the gene of interest and the house keeping gene GAPDH (ΔCt) and (b) ΔCt values for treated and control groups (ΔΔCt). Data are expressed as a fold-increase over the mean gene expression level in solvent control wells.
# [8] = female C57BL/6 mice, single i.p. dose 62.5 mg/kg
# [9] = female mice, day 4 post-infection
structure (smiles),measurement,setting,value
"CC(C)(C)CC(C)(C)c1ccc(O)c(Cc2ccc(Cl)cc2Cl)c1 [clofoctol, 2-[(2,4-dichlorophenyl)methyl]-4-(2,4,4-trimethylpentan-2-yl)phenol]",IL-6 and IL-12p40 production in lungs,"[1]; ELISA, 4 dpi",Reduced
same,"transcript expression of interferon-stimulated genes Mx1, ISG15 and Cxcl10",[1]; RT-qPCR,reduced
same,viral RNA yields by RT-qPCR,[1]; day 2 and 4 post-infection,trend in reduced viral load
same,infectious viral load in the lungs,"[1]; day 2 and day 4 post-infection, titration on MDCK cells",slightly reduced
same,expression of transcript encoding TNFα in lungs,"[1]; day 2 post-infection, RT-qPCR",to a lower extent
same,"expression of transcripts encoding IL-6, IL-12p40, Ccl2, IFN-γ in lungs","[1]; day 2 post-infection, RT-qPCR",reduced
same,"lung pathology (histology, inflammation scoring)","[1]; day 4 post-infection, hematoxylin and eosin",only a minimal interstitial inflammation
same,clofoctol concentration in the lungs,"62.5 mg/kg i.p. twice daily during two days, 1 h after the fourth administration",67 µM
same,plasma concentration relative to lung concentration,[8],seven times lower
same,time lung concentration remained above this level (61 μM),[8],~4 h
same,clofoctol concentration in the lungs,"female C57BL/6 mice, single i.p. dose 62.5 mg/kg, 30 min after injection",up to 61 μM
same,IC95 measured in vitro,[2],~10 µM
same,"expression of transcripts encoding IL-6, TNFα, IL-1β, IFN-γ, IL12p40 and CCL2 in lungs",[3],markedly reduced
same,lung fibrosis (Red Sirius staining),[4]; 28 days post-infection,tended to develop less fibrosis
same,body weight,[4]; IAV-infected mice,reduces body weight
same,viral load by RT-qPCR,"[5]; female mice treated during the first 2 days, day 4 post-inoculation",decrease in viral load
same,viral RNA yields in lungs by RT-qPCR,"[5]; female mice, 62.5 mg/kg i.p., day 2 post-infection",reduced viral load
same,"expression of transcripts encoding IL-6, TNFα, IL12p40, IFNβ, IFNγ and ISG Mx1, Ifi44, ISG15 in lungs","[5]; female mice, 62.5 mg/kg i.p., day 2 post-infection, RT-qPCR",markedly reduced
same,reduction of infectious viral load in the lungs vs vehicle,"[5]; female mice, 62.5 mg/kg i.p., day 2 post-infection, titration on Vero-81 cells",more than 1.1 log10
same,expression of transcripts encoding inflammatory markers,[5]; [9],strongly decreased
same,lung pathology (histology),[5]; [9],only a minimal interstitial inflammation
same,inflammatory score of lung sections,"[5]; female mice, day 4 post-infection, blinded scoring",reduces the inflammatory score
same,infection-induced drop of Ocln and ZO1 transcript levels (epithelial barrier markers),"[5]; female mice, day 4 post-infection, lungs",significantly reduced
same,"production of inflammatory cytokines IL-1β, IL-12p40 and TNF-α",[6],"inhibited, in a dose dependent manner"
same,expression of MCP1 and IL-6 genes,"[7]; 5 hours, RT-qPCR",significantly reducing
same,MCP1 and IL-6 protein in supernatant,"[7]; 24 hours, ELISA",significantly reducing
same,IL1-β and TNF-α expression/production,[7]; RT-qPCR (5 hours) and TNFα ELISA (24 hours),not significantly modulating
